This is an account of results in US9290511B2, “Thieno-pyrimidines, useful as potassium channel inhibitors” (XENTION LIMITED, priority 2011, dated 2016).

The target in the test is T1, Kir3.1/3.4 (Rattus norvegicus, UniProt P48548+P63251).
T1 construct: expressed in transfected cells
T1 sequence (P63251 1-501): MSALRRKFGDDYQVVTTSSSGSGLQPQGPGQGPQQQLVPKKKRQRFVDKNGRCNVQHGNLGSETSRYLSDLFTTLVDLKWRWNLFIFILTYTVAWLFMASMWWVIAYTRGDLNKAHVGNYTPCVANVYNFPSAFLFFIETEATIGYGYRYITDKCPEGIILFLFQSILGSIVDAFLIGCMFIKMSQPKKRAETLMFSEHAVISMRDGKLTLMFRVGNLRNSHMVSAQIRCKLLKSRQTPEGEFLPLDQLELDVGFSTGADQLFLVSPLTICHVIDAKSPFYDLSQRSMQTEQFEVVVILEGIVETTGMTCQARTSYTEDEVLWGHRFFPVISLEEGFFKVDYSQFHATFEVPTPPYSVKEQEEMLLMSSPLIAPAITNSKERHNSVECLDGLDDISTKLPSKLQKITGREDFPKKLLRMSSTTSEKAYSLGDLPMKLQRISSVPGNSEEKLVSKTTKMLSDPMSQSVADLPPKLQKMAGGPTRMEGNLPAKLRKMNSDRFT
T1 sequence (P48548 1-419): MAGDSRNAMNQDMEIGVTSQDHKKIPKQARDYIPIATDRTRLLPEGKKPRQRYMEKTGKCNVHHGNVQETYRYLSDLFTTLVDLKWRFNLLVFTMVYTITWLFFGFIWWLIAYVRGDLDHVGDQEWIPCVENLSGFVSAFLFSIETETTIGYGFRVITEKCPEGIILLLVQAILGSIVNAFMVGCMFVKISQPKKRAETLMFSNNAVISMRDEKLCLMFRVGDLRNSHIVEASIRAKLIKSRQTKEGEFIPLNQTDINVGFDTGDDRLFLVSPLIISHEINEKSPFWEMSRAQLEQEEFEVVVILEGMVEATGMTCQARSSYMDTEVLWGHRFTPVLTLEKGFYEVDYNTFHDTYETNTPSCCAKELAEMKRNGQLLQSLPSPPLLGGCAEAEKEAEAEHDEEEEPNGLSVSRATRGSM
In words: Kir3.1/3.4 Electrophysiology Method (manual whole-cell patch clamp). Type of test: cell-based. The settings on record: Electrophysiology Method (TABLE 1). The method, then:
Compound activity against the recombinant G-protein activated inward rectifier current encoded by the heterotetramer Kir3.1/3.4 was assessed using manual whole-cell patch technique. The heterotetramer forms the pore-forming channel that conducts the acetylcholine/adenosine-activated potassium current in the heart.
For whole-cell patch-clamp studies, cells (Human Embryonic Kidney 293 stably transfected with rat Kir3.1/3.4) were seeded onto glass coverslips before recordings were made. Cells were seeded in sterile 30 mm Petri dishes at a density to enable isolated cells to be selected for patch clamp experiments. The dishes were stored in a humidified, gassed (5% CO2) incubator at 37° C. until use.
Whole-cell patch-clamp recordings of membrane currents were made following gigaohm seal formation between the patch electrode and the cell using HEKA EPC-9/10 amplifiers controlled by Pulse Software (Ver8.5x/8.6×/8.7×, HEKA, Germany). Coverslips seeded with cells were placed in a recording chamber mounted on the stage of an inverted microscope. During the experiment, the cell of interest was continuously superfused with bather solution delivered via a cannula placed in close proximity to the cell to enable control of the extracellular solution environment. Only those cells with a current <−500 pA (current at −140 mV) were used for experiments. During experiments, series resistance was compensated by a minimum of 70%.
Electrophysiology voltage-step protocols and analysis of data were performed as follows. Data was sampled at 5 kHz, and filtered with a −3 dB bandwidth of 2.5 kHz. Cells were held at a voltage of −60 mV. Currents were evoked by a depolarising voltage step to +60 mV (100 ms) before a ramp-repolarisation (0.4 V·s^−1) to −140 mV (100 ms) before returning to −60 mV. The command waveform was repeatedly applied every 10 s throughout the experiment. Mean currents during 1-99% of the time at −140 mV were analysed using Pulsefit software (v8.x, HEKA, Germany). The voltage protocol was repeatedly applied to achieve a stable current baseline in bather before the test substance was superfused via the cannula in close proximity to the cell under investigation. The test substance was allowed to equilibrate during which time voltage protocol was repeatedly applied and recorded. On reaching steady-state inhibition, the cell was superfused with an identical bather solution containing zero external potassium chloride (replaced by equimolar NaCl). The identical current measurement was made in the absence of potassium to assess the passive leak at −140 mV. The leak current was subtracted from the control and steady-state drug current values. The percentage inhibition of the leak-subtracted current in the presence of test substance was calculated relative to the control leak-subtracted pre-drug value. Internal patch-pipette solution contained in mM: 110 KCl, 20 NaCl, 0.9 GTPγS, 5 Mg-ATP, 5 EGTA, 10 HEPES, pH7.2 corrected with KOH. The external superfusate composition in mM was: 150 (or 160) NaCl, 10 (or 0) KCl, 3 CaCl2, 1 MgCl, 10 HEPES, pH 7.4 corrected with NaOH.
A general note: In patch-clamp work, channel activity is measured electrically.

The term IC50 denotes the concentration that gives 50% inhibition. A high value points to weaker potency. With `c1ccc(-c2csc3ncnc(N4CCC(CN5CCC5)CC4)c23)cc1` [Example 73, 4-[4-(azetidin-1-ylmethyl)-1-piperidyl]-5-phenyl-thieno[2,3-d]pyrimidine], the IC50 lay within 0.5 to 3 µM.
`c1ccc(-c2csc3ncnc(N4CCC(OCCN5CCCC5)C4)c23)cc1` (centres unmarked) [Example 269] had a half-maximal inhibitory concentration (IC50) below 0.5 µM.
Molecule `CN1CCN(c2nc(N3CCC(CN(CCO)CCO)CC3)c3c(-c4ccccc4)csc3n2)CC1` [Example 107] came in with an IC50 of 0.5 to 3 µM.
Consider `FC(F)(F)Oc1cccc(-c2csc3ncnc(N4CCC(COCCN5CCCC5)CC4)c23)c1` [Example 313], for which the IC50 was below 0.5 µM.
For `Fc1ccc(-c2csc3ncnc(N4CCC(COCCN5CCOCC5)CC4)c23)cc1` [Example 21, 4-[2-[[1-[5-(4-fluorophenyl)thieno[2,3-d]pyrimidin-4-yl]-4-piperidyl]methoxy]ethyl]morpholine], the IC50 was below 0.5 µM.
Turning to `CCN1CCCC1CCN(C)CC1CCN(c2ncnc3scc(-c4ccccc4)c23)CC1` (centres unmarked) [Example 87, 2-(1-ethylpyrrolidin-2-yl)-N-methyl-N-[[1-(5-phenylthieno[2,3-d]pyrimidin-4-yl)-4-piperidyl]methyl]ethanamine], the IC50 is below 0.5 µM.
Molecule `CCN(CC)C(=O)C1CCCN(CC2CCN(c3ncnc4scc(-c5ccccc5)c34)CC2)C1` (centres unmarked) [Example 246] showed an IC50 below 0.5 µM.
The molecule `CN(C)C(=O)c1cccc(-c2csc3ncnc(N4CCC(COCCN5CCCC5)CC4)c23)c1` [Example 332] returned an IC50 of 0.5 to 3 µM.
As for `COc1ncc(F)cc1-c1csc2ncnc(N3C4CCC3CC(NC3CCC3)C4)c12` (centres unmarked) [Example 346], the figure is 0.5 to 3 µM; as for `NC(=O)C1CCN(CCOCC2CCN(c3ncc4c(-c5ccccc5)csc4n3)CC2)C1` (centres unmarked) [Example 153], below 0.5 µM; as for `CN1CCC(N(C)C(=O)C2CCN(c3ncnc4scc(-c5ccccc5)c34)CC2)C1` (centres unmarked) [Example 249], below 0.5 µM.
As for `NC(=O)[C@H]1CCCN1CCOCC1C2CN(c3ncnc4scc(-c5ccc(F)cc5)c34)CC12` (stereo partly drawn) [Example 45, (2R)-1-[2-[[3-[5-(4-fluorophenyl)thieno[2,3-d]pyrimidin-4-yl]-3-azabicyclo[3.1.0]hexan-6-yl]methoxy]ethyl]pyrrolidine-2-carboxamide], the figure is below 0.5 µM.
Molecule `FC(F)(F)C1CCCN(CC2CCN(c3ncnc4scc(-c5ccccc5)c34)CC2)C1` (centres unmarked) [Example 212] showed an IC50 below 0.5 µM.
As for `CC(C)NC(=O)c1sc2ncnc(N3CCC(COCCN4CCCC4)CC3)c2c1-c1ccccc1` [Example 139, N-isopropyl-5-phenyl-4-[4-(2-pyrrolidin-1-ylethoxymethyl)-1-piperidyl]thieno[2,3-d]pyrimidine-6-carboxamide], the figure is below 0.5 µM; as for `COc1ncccc1-c1csc2ncnc(N3C4CCC3CC(CO)C4)c12` (centres unmarked) [Example 365], 0.5 to 3 µM.
`COCCNc1nc(N2CCC(CNC3CCC3)CC2)c2c(-c3ccccc3)csc2n1` [Example 126]: the IC50 is below 0.5 µM.
As for `CN(C)[C@H]1CCCN(CC2CCN(c3ncnc4scc(-c5ccccc5)c34)CC2)C1` [Example 215], the figure is below 0.5 µM.
With `F[C@@H]1CCN(CCOCC2CCN(c3ncnc4scc(-c5ccccc5)c34)CC2)C1` [Example 32, 4-[4-[2-[(3R)-3-fluoropyrrolidin-1-yl]ethoxymethyl]-1-piperidyl]-5-phenyl-thieno[2,3-d]pyrimidine] the figure was below 0.5 µM; with `C(#Cc1ncnc2scc(-c3ccccc3)c12)COCCN1CCCC1` [Example 161, 5-Phenyl-4-[3-(2-pyrrolidinyl-1-ylethoxy)prop-1-ynyl]thieno[2,3-d]pyrimidine], below 0.5 µM; with “5-phenyl-thieno[2,3-d]pyrimidine-2-carbonitrile [Example 338]”, below 0.5 µM.
With `COc1ncccc1-c1csc2ncnc(N3C4CCC3CC(N(C)C3CCC3)C4)c12` (centres unmarked) [Example 351, N-cyclobutyl-8-[5-(2-methoxy-3-pyridyl)thieno[2,3-d]pyrimidin-4-yl]-N-methyl-8-azabicyclo[3.2.1]octan-3-amine] the figure was below 0.5 µM; with `Cc1sc2nc(N3CCC(C(N)=O)C3)nc(N3CCC(CNCCC4CCCCN4C)CC3)c2c1C` (centres unmarked) [Example 240], below 0.5 µM; with `CC(=O)N1CCCC1CCN(C)CC1CCN(c2ncnc3scc(-c4ccccc4)c23)CC1` (centres unmarked) [Example 89, 1-[2-[2-[methyl-[[1-(5-phenylthieno[2,3-d]pyrimidin-4-yl)-4-piperidyl]methyl]amino]ethyl]pyrrolidin-1-yl]ethanone], 0.5 to 3 µM.
In turn, `CCc1nc(N2CCC(N(C)C)CC2)c2c(-c3ccccc3)csc2n1` [Example 170] had an IC50 of 0.5 to 3 µM.
As for `CN(C)C1CCCN(CC2CCN(c3ncnc4scc(-c5ccccc5)c34)CC2)C1` (centres unmarked) [Example 60, N,N-dimethyl-1-[[1-(5-phenylthieno[2,3-d]pyrimidin-4-yl)-4-piperidyl]methyl]piperidin-3-amine], the figure is below 0.5 µM; as for `N#Cc1sc2nccc(N3CCC(COCCN4CCCC4)CC3)c2c1-c1ccccc1` [Example 144], below 0.5 µM.
Consider “5-phenyl-thieno[2,3-d]pyrimidine [Example 160]”, for which the IC50 is below 0.5 µM.
As for `CN1CCCC1CCNCC1CCN(c2ncc3c(-c4ccccc4)csc3n2)CC1` (centres unmarked) [Example 146], the figure is below 0.5 µM; as for `c1ccc(-c2csc3ncnc(N4CCC(CNCCC5CC5)CC4)c23)cc1` [Example 103], below 0.5 µM; as for `CN(CC1CCN(c2ncnc3scc(-c4ccccc4)c23)CC1)C1CCC1` [Example 251], below 0.5 µM.
With `CNC(=O)c1sc2ncnc(N3C4CCC3CC(COCCN3CCCC3)C4)c2c1-c1ccccc1` (centres unmarked) [Example 361] the figure was below 0.5 µM.
With `c1ccc(-c2csc3ncnc(N4CCC(N5CCCCC5)C4)c23)cc1` (centres unmarked) [Example 181, d]pyrimidine] the figure was 0.5 to 3 µM.
The molecule `c1ccc(-c2csc3ncnc(N4C5CCC4CC(CNC4CCC4)C5)c23)cc1` (centres unmarked) [Example 323] had an IC50 below 0.5 µM.
With `COCC1CCN(c2nc(NCCN(C)C)nc3scc(-c4ccccc4)c23)CC1` [Example 173] the figure was below 0.5 µM; with `CC(C)Oc1ncccc1-c1csc2ncnc(N3CCC(COCCN4CCCC4)CC3)c12` [Example 328], below 0.5 µM; with `c1ccc(COC2CCN(c3ncnc4scc(-c5ccccc5)c34)C2)cc1` (centres unmarked) [Example 178, d]pyrimidine], 0.5 to 3 µM.
With `CN1CCC(N(C)C2CCN(c3ncnc4scc(-c5ccccc5)c34)CC2)C1` (centres unmarked) [Example 231] the figure was below 0.5 µM; with `CCc1c(C)sc2ncnc(N3CCC(COCCN4CCOCC4)CC3)c12` [Example 23, 4-[2-[[1-(5-ethyl-6-methyl-thieno[2,3-d]pyrimidin-4-yl)-4-piperidyl]methoxy]ethyl]morpholine], below 0.5 µM.
